Data reported in the kinase profiling compilation of Christmann-Franck et al. (2016).
One block for each compound: values may come before it.

Assays:
Test in all cases: radiometric filter-binding kinase assay
CSNK1D (human) = CSNK1D (human) (UniProt P48730)
CHEK2 (human) = CHEK2 (human) (UniProt O96017)
DYRK1A (human) = DYRK1A (human) (UniProt Q13627)
IRAK4 (human) = IRAK4 (human) (UniProt Q9NWZ3)
JAK2 JH1 JH2 (human) = JAK2 JH1 JH2 (human) (UniProt O60674)
MKNK1 (human) = MKNK1 (human) (UniProt Q9BUB5)
DYRK3 (human) = DYRK3 (human) (UniProt O43781)
IKBKB (human) = IKBKB (human) (UniProt O14920)
[1] = target: STK11 CAB39 STRADA (human) (UniProt Q9Y376+Q7RTN6+Q15831)
IKBKE (human) = IKBKE (human) (UniProt Q14164)
[2] = tested on: RPS6KB1 (human), P23443 [T412E]
TBK1 (human) = TBK1 (human) (UniProt Q9UHD2)
PIM1 (human) = PIM1 (human) (UniProt P11309)
MAPKAPK2 (human) = MAPKAPK2 (human) (UniProt P49137)
MARK2 (human) = MARK2 (human) (UniProt Q7KZI7)
MAP2K1 (human) = MAP2K1 (human) (UniProt Q02750)
MARK3 (human) = MARK3 (human) (UniProt P27448)
MAPK3 (human) = MAPK3 (human) (UniProt P27361)
NUAK1 (human) = NUAK1 (human) (UniProt O60285)
MAPK9 (human) = MAPK9 (human) (UniProt P45984)
NEK2 (human) = NEK2 (human) (UniProt P51955)
CaMK1 (human) = CaMK1 (human) (UniProt Q14012)
MKNK2 (human) = MKNK2 (human) (UniProt Q9HBH9)
MAPK14 (human) = MAPK14 (human) (UniProt Q16539)
STK3 (human) = STK3 (human) (UniProt Q13188)
NEK6 (human) = NEK6 (human) (UniProt Q9HC98)
PAK4 (human) = PAK4 (human) (UniProt O96013)
MARK1 (human) = MARK1 (human) (UniProt Q9P0L2)
MAPK8 (human) = MAPK8 (human) (UniProt P45983)
[3] = tested on: AKT1 (human), P31749 [S473D]
MAP3K11 (human) = MAP3K11 (human) (UniProt Q16584)
TTK (human) = TTK (human) (UniProt P33981)
EPHB2 (human) = EPHB2 (human) (UniProt P29323)
RPS6KA1 KD1 KD2 (human) = RPS6KA1 KD1 KD2 (human) (UniProt Q15418)
NTRK1 (human) = NTRK1 (human) (UniProt P04629)

NEK2 (human), sequence (P51955 whole entry, looked up): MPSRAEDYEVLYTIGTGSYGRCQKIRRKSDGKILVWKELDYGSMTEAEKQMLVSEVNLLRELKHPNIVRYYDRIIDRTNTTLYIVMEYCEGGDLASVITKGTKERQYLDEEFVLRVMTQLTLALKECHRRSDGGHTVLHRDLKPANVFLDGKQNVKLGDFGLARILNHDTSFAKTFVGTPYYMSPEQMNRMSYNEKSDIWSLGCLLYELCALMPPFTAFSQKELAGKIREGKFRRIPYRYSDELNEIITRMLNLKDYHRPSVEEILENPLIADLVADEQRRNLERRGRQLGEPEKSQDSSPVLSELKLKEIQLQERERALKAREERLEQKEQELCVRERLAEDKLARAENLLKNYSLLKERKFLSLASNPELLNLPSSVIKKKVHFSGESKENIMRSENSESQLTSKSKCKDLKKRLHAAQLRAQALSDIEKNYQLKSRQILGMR
NEK6 (human), sequence (Q9HC98 whole entry, looked up): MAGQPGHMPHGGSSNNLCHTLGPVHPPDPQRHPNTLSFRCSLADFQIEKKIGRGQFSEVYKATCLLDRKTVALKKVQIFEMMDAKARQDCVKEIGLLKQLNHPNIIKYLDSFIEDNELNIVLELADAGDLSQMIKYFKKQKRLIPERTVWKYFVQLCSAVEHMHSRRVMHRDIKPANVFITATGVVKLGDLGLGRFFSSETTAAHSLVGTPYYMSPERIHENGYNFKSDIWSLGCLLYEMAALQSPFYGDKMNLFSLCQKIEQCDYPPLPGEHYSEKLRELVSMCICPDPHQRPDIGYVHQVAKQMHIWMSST
AKT1 (human), P31749 [S473D], sequence (P31749 whole entry S473D, looked up): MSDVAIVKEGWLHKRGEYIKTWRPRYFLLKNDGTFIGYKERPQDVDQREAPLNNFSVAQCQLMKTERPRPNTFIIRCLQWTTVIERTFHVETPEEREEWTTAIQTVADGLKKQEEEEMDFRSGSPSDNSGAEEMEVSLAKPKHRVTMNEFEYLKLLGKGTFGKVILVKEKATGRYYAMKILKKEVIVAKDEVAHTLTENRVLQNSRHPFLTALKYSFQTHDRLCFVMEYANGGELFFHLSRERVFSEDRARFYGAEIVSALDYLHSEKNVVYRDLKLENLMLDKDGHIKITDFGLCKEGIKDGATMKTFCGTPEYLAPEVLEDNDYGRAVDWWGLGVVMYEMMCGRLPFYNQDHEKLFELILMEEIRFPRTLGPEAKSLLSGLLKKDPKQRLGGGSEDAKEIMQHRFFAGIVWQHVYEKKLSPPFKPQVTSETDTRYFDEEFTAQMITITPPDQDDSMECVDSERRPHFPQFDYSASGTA
MKNK1 (human), sequence (Q9BUB5 whole entry, looked up): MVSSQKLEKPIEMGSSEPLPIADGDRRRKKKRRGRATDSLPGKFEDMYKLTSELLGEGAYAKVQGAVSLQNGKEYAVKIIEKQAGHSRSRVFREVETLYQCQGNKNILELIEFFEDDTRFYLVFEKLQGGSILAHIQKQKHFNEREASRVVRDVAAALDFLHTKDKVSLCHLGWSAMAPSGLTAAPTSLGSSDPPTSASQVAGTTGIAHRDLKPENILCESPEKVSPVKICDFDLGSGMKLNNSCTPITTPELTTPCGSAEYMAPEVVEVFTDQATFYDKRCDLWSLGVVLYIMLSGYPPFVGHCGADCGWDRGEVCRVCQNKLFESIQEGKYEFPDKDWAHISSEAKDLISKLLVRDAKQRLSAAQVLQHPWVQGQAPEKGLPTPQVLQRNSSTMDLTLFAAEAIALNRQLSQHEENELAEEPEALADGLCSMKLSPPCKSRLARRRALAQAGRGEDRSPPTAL
TBK1 (human), sequence (Q9UHD2 whole entry, looked up): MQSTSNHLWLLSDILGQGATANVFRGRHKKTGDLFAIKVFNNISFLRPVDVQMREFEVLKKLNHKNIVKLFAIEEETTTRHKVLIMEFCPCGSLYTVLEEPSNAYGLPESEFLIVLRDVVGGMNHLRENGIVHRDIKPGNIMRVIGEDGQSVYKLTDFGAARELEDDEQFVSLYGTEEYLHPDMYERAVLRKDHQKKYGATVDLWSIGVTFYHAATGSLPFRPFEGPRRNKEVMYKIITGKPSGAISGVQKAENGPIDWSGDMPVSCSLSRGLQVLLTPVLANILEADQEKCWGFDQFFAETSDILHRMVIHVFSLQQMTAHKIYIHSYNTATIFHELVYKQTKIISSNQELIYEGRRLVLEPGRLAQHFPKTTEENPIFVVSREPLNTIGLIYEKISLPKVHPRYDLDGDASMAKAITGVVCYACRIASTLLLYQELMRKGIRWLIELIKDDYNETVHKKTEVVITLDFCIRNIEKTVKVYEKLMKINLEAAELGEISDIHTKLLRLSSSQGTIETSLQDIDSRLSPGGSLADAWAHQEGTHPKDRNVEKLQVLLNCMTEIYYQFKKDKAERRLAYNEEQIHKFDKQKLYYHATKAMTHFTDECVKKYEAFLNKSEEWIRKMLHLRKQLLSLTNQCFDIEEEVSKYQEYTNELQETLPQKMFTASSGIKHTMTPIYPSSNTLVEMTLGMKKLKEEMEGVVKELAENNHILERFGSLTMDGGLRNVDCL
PIM1 (human), sequence (P11309 whole entry, looked up): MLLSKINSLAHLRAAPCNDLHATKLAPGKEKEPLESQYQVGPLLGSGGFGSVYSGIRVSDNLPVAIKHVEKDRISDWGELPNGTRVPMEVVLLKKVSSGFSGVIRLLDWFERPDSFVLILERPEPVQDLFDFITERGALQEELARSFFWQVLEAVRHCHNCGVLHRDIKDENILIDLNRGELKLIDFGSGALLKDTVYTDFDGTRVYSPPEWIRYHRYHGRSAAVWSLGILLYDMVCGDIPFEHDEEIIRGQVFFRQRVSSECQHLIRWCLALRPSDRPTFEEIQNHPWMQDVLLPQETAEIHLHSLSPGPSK
TTK (human), sequence (P33981 whole entry, looked up): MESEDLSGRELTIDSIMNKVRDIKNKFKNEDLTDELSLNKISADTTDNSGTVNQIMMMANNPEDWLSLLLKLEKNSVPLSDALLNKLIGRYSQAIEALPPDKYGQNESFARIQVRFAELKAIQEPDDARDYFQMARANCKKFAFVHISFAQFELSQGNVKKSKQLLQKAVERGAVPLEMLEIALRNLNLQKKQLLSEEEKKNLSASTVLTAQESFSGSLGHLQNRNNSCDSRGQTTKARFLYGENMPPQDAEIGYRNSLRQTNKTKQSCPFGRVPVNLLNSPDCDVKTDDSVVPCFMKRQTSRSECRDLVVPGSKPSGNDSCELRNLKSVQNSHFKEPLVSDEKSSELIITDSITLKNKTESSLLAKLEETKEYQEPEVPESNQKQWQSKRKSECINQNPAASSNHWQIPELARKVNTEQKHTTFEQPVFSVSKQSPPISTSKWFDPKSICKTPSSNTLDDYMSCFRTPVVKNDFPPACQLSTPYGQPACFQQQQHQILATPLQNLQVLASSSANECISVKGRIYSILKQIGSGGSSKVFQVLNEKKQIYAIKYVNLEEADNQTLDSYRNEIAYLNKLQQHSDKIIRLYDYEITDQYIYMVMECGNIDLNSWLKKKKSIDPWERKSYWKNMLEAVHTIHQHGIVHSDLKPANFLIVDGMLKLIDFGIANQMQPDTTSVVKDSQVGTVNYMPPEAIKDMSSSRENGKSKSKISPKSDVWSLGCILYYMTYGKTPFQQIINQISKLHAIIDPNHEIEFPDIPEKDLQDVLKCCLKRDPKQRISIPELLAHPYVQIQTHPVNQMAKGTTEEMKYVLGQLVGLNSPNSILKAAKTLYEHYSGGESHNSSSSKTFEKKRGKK
CSNK1D (human), sequence (P48730 whole entry, looked up): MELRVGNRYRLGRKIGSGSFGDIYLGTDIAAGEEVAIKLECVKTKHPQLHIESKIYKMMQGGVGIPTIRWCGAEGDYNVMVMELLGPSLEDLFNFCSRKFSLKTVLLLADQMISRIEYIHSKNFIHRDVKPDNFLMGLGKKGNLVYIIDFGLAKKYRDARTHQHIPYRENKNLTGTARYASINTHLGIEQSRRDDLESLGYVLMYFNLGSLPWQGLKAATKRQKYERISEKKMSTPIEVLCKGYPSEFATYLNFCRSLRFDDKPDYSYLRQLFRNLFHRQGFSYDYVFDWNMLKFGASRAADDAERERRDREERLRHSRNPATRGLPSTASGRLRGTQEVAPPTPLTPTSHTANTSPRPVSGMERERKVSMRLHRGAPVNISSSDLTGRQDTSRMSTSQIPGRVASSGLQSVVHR
CHEK2 (human), sequence (O96017 whole entry, looked up): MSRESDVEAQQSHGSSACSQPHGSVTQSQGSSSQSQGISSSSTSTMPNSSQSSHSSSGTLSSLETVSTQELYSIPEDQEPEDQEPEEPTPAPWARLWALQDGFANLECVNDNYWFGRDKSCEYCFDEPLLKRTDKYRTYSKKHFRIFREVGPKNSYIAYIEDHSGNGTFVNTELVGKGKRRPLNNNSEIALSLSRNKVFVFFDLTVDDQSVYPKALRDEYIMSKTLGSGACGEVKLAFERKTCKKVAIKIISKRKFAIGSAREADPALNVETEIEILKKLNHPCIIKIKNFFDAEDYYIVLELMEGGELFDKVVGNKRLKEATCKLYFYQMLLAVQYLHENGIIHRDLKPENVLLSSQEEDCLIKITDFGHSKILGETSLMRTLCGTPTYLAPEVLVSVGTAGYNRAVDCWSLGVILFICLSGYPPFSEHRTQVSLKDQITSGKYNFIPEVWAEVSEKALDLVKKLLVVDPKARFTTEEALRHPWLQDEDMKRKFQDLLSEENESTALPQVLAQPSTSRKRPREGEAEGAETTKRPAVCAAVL
MAPK9 (human), sequence (P45984 whole entry, looked up): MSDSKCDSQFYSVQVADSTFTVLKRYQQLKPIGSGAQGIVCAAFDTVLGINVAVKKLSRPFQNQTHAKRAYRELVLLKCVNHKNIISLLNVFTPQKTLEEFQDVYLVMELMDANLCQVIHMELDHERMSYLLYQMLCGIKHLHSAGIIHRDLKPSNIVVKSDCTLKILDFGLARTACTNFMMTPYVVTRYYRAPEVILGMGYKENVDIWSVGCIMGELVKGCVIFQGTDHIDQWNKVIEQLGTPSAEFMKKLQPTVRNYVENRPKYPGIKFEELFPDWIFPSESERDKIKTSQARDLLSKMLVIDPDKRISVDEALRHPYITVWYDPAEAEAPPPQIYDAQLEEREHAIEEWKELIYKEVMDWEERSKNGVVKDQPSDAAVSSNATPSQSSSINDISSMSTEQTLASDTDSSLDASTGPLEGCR

- residual activity (CSNK1D (human); compound 1.0 µM): 86%
- residual activity (CSNK1D (human); compound 10.0 µM): 41%
- residual activity (CHEK2 (human); compound 1.0 µM): 102%
- residual activity (CHEK2 (human); compound 10.0 µM): 37%
- residual activity (DYRK1A (human); compound 1.0 µM): 27%
- residual activity (DYRK1A (human); compound 10.0 µM): 5%
- residual activity (IRAK4 (human); compound 1.0 µM): 90%
- residual activity (IRAK4 (human); compound 10.0 µM): 88%
- residual activity (JAK2 JH1 JH2 (human); compound 1.0 µM): 99%
- residual activity (JAK2 JH1 JH2 (human); compound 10.0 µM): 46%
- residual activity (MKNK1 (human); compound 1.0 µM): 89%
- residual activity (MKNK1 (human); compound 10.0 µM): 55%
- residual activity (DYRK3 (human); compound 1.0 µM): 18%
- residual activity (DYRK3 (human); compound 10.0 µM): 3%
- residual activity (IKBKB (human); compound 1.0 µM): 89%
- residual activity (IKBKB (human); compound 10.0 µM): 56%
- residual activity ([1]; compound 1.0 µM): 85%
- residual activity ([1]; compound 10.0 µM): 64%
- residual activity (IKBKE (human); compound 1.0 µM): 109%
- residual activity (IKBKE (human); compound 10.0 µM): 60%
- residual activity ([2]; compound 1.0 µM): 98%
- residual activity ([2]; compound 10.0 µM): 50%
- residual activity (TBK1 (human); compound 1.0 µM): 109%
- residual activity (TBK1 (human); compound 10.0 µM): 63%
- residual activity (PIM1 (human); compound 1.0 µM): 70%
- residual activity (PIM1 (human); compound 10.0 µM): 17%
- residual activity (MAPKAPK2 (human); compound 1.0 µM): 97%
- residual activity (MAPKAPK2 (human); compound 10.0 µM): 94%
- residual activity (MARK2 (human); compound 1.0 µM): 83%
- residual activity (MARK2 (human); compound 10.0 µM): 84%
- residual activity (MAP2K1 (human); compound 1.0 µM): 87%
- residual activity (MAP2K1 (human); compound 10.0 µM): 31%
- residual activity (MARK3 (human); compound 1.0 µM): 100%
- residual activity (MARK3 (human); compound 10.0 µM): 51%
- residual activity (MAPK3 (human); compound 1.0 µM): 101%
- residual activity (MAPK3 (human); compound 10.0 µM): 82%
- residual activity (NUAK1 (human); compound 1.0 µM): 128%
- residual activity (NUAK1 (human); compound 10.0 µM): 88%
- residual activity (MAPK9 (human); compound 1.0 µM): 113%
- residual activity (MAPK9 (human); compound 10.0 µM): 100%
- residual activity (NEK2 (human); compound 1.0 µM): 108%
- residual activity (NEK2 (human); compound 10.0 µM): 113%
- residual activity (CaMK1 (human); compound 1.0 µM): 93%
- residual activity (CaMK1 (human); compound 10.0 µM): 73%
- residual activity (MKNK2 (human); compound 1.0 µM): 105%
- residual activity (MKNK2 (human); compound 10.0 µM): 64%
- residual activity (MAPK14 (human); compound 1.0 µM): 102%
- residual activity (MAPK14 (human); compound 10.0 µM): 107%
- residual activity (STK3 (human); compound 1.0 µM): 93%
- residual activity (STK3 (human); compound 10.0 µM): 76%
- residual activity (NEK6 (human); compound 1.0 µM): 93%
- residual activity (NEK6 (human); compound 10.0 µM): 83%
- residual activity (PAK4 (human); compound 1.0 µM): 121%
- residual activity (PAK4 (human); compound 10.0 µM): 97%
- residual activity (MARK1 (human); compound 1.0 µM): 99%
- residual activity (MARK1 (human); compound 10.0 µM): 72%
- residual activity (MAPK8 (human); compound 1.0 µM): 103%
- residual activity (MAPK8 (human); compound 10.0 µM): 101%
- residual activity ([3]; compound 1.0 µM): 99%
- residual activity ([3]; compound 10.0 µM): 73%
- residual activity (MAP3K11 (human); compound 1.0 µM): 91%
- residual activity (MAP3K11 (human); compound 10.0 µM): 61%
- residual activity (TTK (human); compound 1.0 µM): 83%
- residual activity (TTK (human); compound 10.0 µM): 63%
- residual activity (EPHB2 (human); compound 1.0 µM): 111%
- residual activity (EPHB2 (human); compound 10.0 µM): 120%
- residual activity (RPS6KA1 KD1 KD2 (human); compound 1.0 µM): 122%
- residual activity (RPS6KA1 KD1 KD2 (human); compound 10.0 µM): 57%
- residual activity (NTRK1 (human); compound 1.0 µM): 104%
- residual activity (NTRK1 (human); compound 10.0 µM): 71%
Compound: FC(F)(F)c1ccc(-c2ccc(Oc3cncc4sc(-c5nn[nH]n5)cc34)cc2)cc1

- residual activity (CSNK1D (human); compound 10.0 µM): 81%
- residual activity (CHEK2 (human); compound 10.0 µM): 89%
- residual activity (DYRK1A (human); compound 10.0 µM): 88%
- residual activity (IRAK4 (human); compound 10.0 µM): 79%
- residual activity (JAK2 JH1 JH2 (human); compound 10.0 µM): 104%
- residual activity (MKNK1 (human); compound 10.0 µM): 79%
- residual activity (DYRK3 (human); compound 10.0 µM): 97%
- residual activity (IKBKB (human); compound 10.0 µM): 97%
- residual activity ([1]; compound 10.0 µM): 124%
- residual activity (IKBKE (human); compound 10.0 µM): 91%
- residual activity ([2]; compound 10.0 µM): 94%
- residual activity (TBK1 (human); compound 10.0 µM): 81%
- residual activity (PIM1 (human); compound 10.0 µM): 88%
- residual activity (MAPKAPK2 (human); compound 10.0 µM): 88%
- residual activity (MARK2 (human); compound 10.0 µM): 81%
- residual activity (MAP2K1 (human); compound 10.0 µM): 92%
- residual activity (MARK3 (human); compound 10.0 µM): 72%
- residual activity (MAPK3 (human); compound 10.0 µM): 106%
- residual activity (NUAK1 (human); compound 10.0 µM): 78%
- residual activity (MAPK9 (human); compound 10.0 µM): 87%
- residual activity (NEK2 (human); compound 10.0 µM): 94%
- residual activity (CaMK1 (human); compound 10.0 µM): 80%
- residual activity (MKNK2 (human); compound 10.0 µM): 80%
- residual activity (MAPK14 (human); compound 10.0 µM): 88%
- residual activity (STK3 (human); compound 10.0 µM): 100%
- residual activity (NEK6 (human); compound 10.0 µM): 82%
- residual activity (PAK4 (human); compound 10.0 µM): 77%
- residual activity (MARK1 (human); compound 10.0 µM): 81%
- residual activity (MAPK8 (human); compound 10.0 µM): 85%
- residual activity ([3]; compound 10.0 µM): 83%
- residual activity (MAP3K11 (human); compound 10.0 µM): 99%
- residual activity (TTK (human); compound 10.0 µM): 93%
- residual activity (EPHB2 (human); compound 10.0 µM): 95%
- residual activity (RPS6KA1 KD1 KD2 (human); compound 10.0 µM): 80%
- residual activity (NTRK1 (human); compound 10.0 µM): 95%
Compound: CC(C)C[C@H](NC(=O)CNC(=O)c1cc(Cl)ccc1Cl)B1OC(=O)CC(CC(=O)O)(C(=O)O)O1 (stereo not given in full)
